According to US12139520B2 (priority 2020, dated 2024):
Bridge positions count the residues as written; N and C are the ends. Square brackets hold non-standard residues; d marks the D form. Peptide text beside a SMILES is read from it. Hyp = O=C(O)[C@@H]1C[C@@H](O)CN1; Cit = NC(=O)NCCC[C@H](N)C(=O)O

What was measured:
hAM1 receptor = hAM1 receptor (Homo sapiens, UniProt O60895+Q16602); assay: cAMP assay for in vitro receptor activation, hAM1-R; type: cell-based; settings: cAMP assay, hAM1 receptor; read-out: hAM1R EC50
hAM1 receptor, sequence (Q16602 23-461): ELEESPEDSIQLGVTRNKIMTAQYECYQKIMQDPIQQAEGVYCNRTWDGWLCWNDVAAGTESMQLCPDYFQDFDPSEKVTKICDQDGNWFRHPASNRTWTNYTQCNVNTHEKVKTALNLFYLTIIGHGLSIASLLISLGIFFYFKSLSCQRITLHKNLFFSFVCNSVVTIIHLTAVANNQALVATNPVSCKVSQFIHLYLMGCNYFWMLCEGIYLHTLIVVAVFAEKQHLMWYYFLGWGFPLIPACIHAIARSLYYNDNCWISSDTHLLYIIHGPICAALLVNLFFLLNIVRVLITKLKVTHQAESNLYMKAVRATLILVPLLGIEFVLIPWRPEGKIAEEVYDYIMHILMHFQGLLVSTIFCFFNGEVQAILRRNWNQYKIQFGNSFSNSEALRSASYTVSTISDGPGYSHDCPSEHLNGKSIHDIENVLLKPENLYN
hAM1 receptor, sequence (O60895 43-175 partner): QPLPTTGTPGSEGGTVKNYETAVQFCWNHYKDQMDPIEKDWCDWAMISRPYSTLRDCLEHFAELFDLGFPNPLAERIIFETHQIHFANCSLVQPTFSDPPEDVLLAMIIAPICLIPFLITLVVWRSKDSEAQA
Procedure, shortened: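 Monoclonal stable hAM1-overexpressing cells, thawed from frozen stock; 8000 cells/well in DPBS + 0.05% casein + 0.5 mM IBMX; read-out cAMP.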

[1] = Physical stability of peptide analogues (Thioflavin T fibrillation); type: physicochemical; settings: maximum ThT signal normalized between hAMY maximum and buffer background; 40° C., shaking, four days; pH 7 per table title
Procedure, shortened: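 1 h in 50 mM NaOAc pH 4 / 50 mM NaPi pH 7; + ThT 4 μM final; 40 °C, 700 rpm linear shake 5 min pre-read; ex 450, em 480 nm q10 min × 4 d; LOESS smoothing; max signal normalised to hAMY max vs buffer blank.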

Row | SMILES | EC50 (hAM1 receptor) [µM] | Max ThT signal (%) [1] [%]
1 | CC[C@H](C)[C@H](NC(=O)[C@H](CCCCN)NC(=O)[C@H](CO)NC(=O)[C@H](CCCNC(=N)N)NC(=O)[C@@H]1CCCN1C(=O)[C@H](C)NC(=O)[C@@H](NC(=O)[C@H](CC(N)=O)NC(=O)[C@H](CC(=O)O)NC(=O)[C@H](CCCCN)NC(=O)[C@H](CC(=O)O)NC(=O)[C@H](CCCCN)NC(=O)[C@H](CC(=O)O)NC(=O)[C@@H](NC(=O)[C@H](Cc1ccccc1)NC(=O)[C@H](CCC(N)=O)NC(=O)[C@H](Cc1ccc(O)cc1)NC(=O)[C@H](CC(C)C)NC(=O)[C@H](CCC(N)=O)NC(=O)[C@H](Cc1c[nH]cn1)NC(=O)[C@H](C)NC(=O)[C@H](CC(C)C)NC(=O)[C@H](CCCNC(=N)N)NC(=O)[C@H](CCC(N)=O)NC(=O)[C@@H](NC(=O)[C@@H](NC(=O)[C@@H]1CSSC[C@H](NC(=O)CN)C(=O)N[C@@H](CCCNC(=N)N)C(=O)N[C@@H](Cc2ccccc2)C(=O)NCC(=O)N[C@@H]([C@@H](C)O)C(=O)N1)[C@@H](C)O)C(C)C)[C@@H](C)O)C(C)C)C(=O)N[C@@H](CO)C(=O)N1CCC[C@H]1C(=O)N[C@@H](CCC(N)=O)C(=O)N[C@H](C(=O)N1C[C@H](O)C[C@H]1C(N)=O)[C@@H](C)O [compound 217] (H-GCRFGTCTVQRLAHQLYQFTDKDKDNVAPRSKISPQT[Hyp]-NH2; disulfide 2-7; N-terminus assumed) | > 5 | 13.800
2 | CC[C@H](C)[C@H](NC(=O)[C@H](CCC(N)=O)NC(=O)[C@H](Cc1c[nH]cn1)NC(=O)[C@H](C)NC(=O)[C@H](CC(C)C)NC(=O)[C@H](CCCNC(=N)N)NC(=O)[C@H](CCC(N)=O)NC(=O)[C@@H](NC(=O)[C@@H](NC(=O)[C@@H]1CSSC[C@H](NC(=O)CN)C(=O)N[C@@H](CCCNC(=N)N)C(=O)N[C@@H]([C@@H](C)O)C(=O)NCC(=O)N[C@@H]([C@@H](C)O)C(=O)N1)[C@@H](C)O)C(C)C)C(=O)N[C@@H](Cc1c[nH]cn1)C(=O)N[C@@H](CCC(N)=O)C(=O)N[C@@H](Cc1ccccc1)C(=O)N[C@H](C(=O)N[C@@H](CC(=O)O)C(=O)N[C@@H](CCCCN)C(=O)N[C@@H](Cc1ccccc1)C(=O)N[C@@H](CCCCN)C(=O)N[C@@H](CC(=O)O)C(=O)N[C@@H](CC(N)=O)C(=O)N[C@H](C(=O)N[C@@H](C)C(=O)N1CCC[C@H]1C(=O)N[C@@H](CCCNC(=N)N)C(=O)N[C@@H](CO)C(=O)N[C@@H](CCCCN)C(=O)N[C@H](C(=O)N[C@@H](CO)C(=O)N1CCC[C@H]1C(=O)N[C@@H](CCC(N)=O)C(=O)N[C@H](C(=O)N1C[C@H](O)C[C@H]1C(N)=O)[C@@H](C)O)[C@@H](C)CC)C(C)C)[C@@H](C)O [compound 193] (H-GCRTGTCTVQRLAHQIHQFTDKFKDNVAPRSKISPQT[Hyp]-NH2; disulfide 2-7; N-terminus assumed) | > 5 | 2.700
3 | CC[C@H](C)[C@H](NC(=O)[C@H](CCC(N)=O)NC(=O)[C@H](Cc1c[nH]cn1)NC(=O)[C@H](C)NC(=O)[C@H](CC(C)C)NC(=O)[C@H](CCCNC(=N)N)NC(=O)[C@H](CCC(N)=O)NC(=O)[C@@H](NC(=O)[C@@H](NC(=O)[C@@H]1CSSC[C@H](NC(=O)CN)C(=O)N[C@@H](CCCNC(=N)N)C(=O)N[C@@H]([C@@H](C)O)C(=O)NCC(=O)N[C@@H]([C@@H](C)O)C(=O)N1)[C@@H](C)O)C(C)C)C(=O)N[C@@H](Cc1ccc(O)cc1)C(=O)N[C@@H](CCC(N)=O)C(=O)N[C@@H](Cc1ccccc1)C(=O)N[C@H](C(=O)N[C@@H](CC(=O)O)C(=O)N[C@@H](CCCCN)C(=O)N[C@@H](Cc1ccccc1)C(=O)N[C@@H](CCCCN)C(=O)N[C@@H](CC(=O)O)C(=O)N[C@@H](CC(N)=O)C(=O)N[C@H](C(=O)N[C@@H](C)C(=O)N1CCC[C@H]1C(=O)N[C@@H](CCCNC(=N)N)C(=O)N[C@@H](CO)C(=O)N[C@@H](CCCCN)C(=O)N[C@H](C(=O)N[C@@H](CO)C(=O)N1CCC[C@H]1C(=O)N[C@@H](CCC(N)=O)C(=O)N[C@H](C(=O)N[C@@H](Cc1ccc(O)cc1)C(N)=O)[C@@H](C)O)[C@@H](C)CC)C(C)C)[C@@H](C)O [compound 230] (H-GCRTGTCTVQRLAHQIYQFTDKFKDNVAPRSKISPQTY-NH2; disulfide 2-7; N-terminus assumed) | > 5 | 0.600

Continued, values first:

Row | EC50 (hAM1 receptor) [µM] | Max ThT signal (%) [1] [%] | SMILES
4 | > 5 | 20.350 | CC[C@H](C)[C@H](NC(=O)[C@H](CC(N)=O)NC(=O)[C@H](CO)NC(=O)[C@H](CCCNC(=N)N)NC(=O)[C@@H]1CCCN1C(=O)[C@H](C)NC(=O)[C@@H](NC(=O)[C@H](CC(N)=O)NC(=O)[C@H](CC(=O)O)NC(=O)[C@H](CCCCN)NC(=O)[C@H](CC(=O)O)NC(=O)[C@H](CCCCN)NC(=O)[C@H](CC(=O)O)NC(=O)[C@@H](NC(=O)[C@H](Cc1ccccc1)NC(=O)[C@H](CCC(N)=O)NC(=O)[C@H](Cc1ccc(O)cc1)NC(=O)[C@@H](NC(=O)[C@H](CCC(N)=O)NC(=O)[C@H](Cc1c[nH]cn1)NC(=O)[C@H](C)NC(=O)[C@H](CC(C)C)NC(=O)[C@H](Cc1c[nH]c2ccccc12)NC(=O)[C@H](CCC(N)=O)NC(=O)[C@@H](NC(=O)[C@@H](NC(=O)[C@@H]1CSSC[C@H](NC(=O)CN)C(=O)N[C@@H](CCCNC(=N)N)C(=O)N[C@@H]([C@@H](C)O)C(=O)NCC(=O)N[C@@H]([C@@H](C)O)C(=O)N1)[C@@H](C)O)C(C)C)[C@@H](C)CC)[C@@H](C)O)C(C)C)C(=O)NCC(=O)N1CCC[C@H]1C(=O)N[C@@H](CCC(N)=O)C(=O)NCC(=O)N1C[C@H](O)C[C@H]1C(N)=O [compound 359] (H-GCRTGTCTVQWLAHQIYQFTDKDKDNVAPRSNIGPQG[Hyp]-NH2; disulfide 2-7; N-terminus assumed)
5 | > 5 | 19.700 | CC[C@H](C)[C@H](NC(=O)[C@H](CCC(N)=O)NC(=O)[C@H](Cc1c[nH]cn1)NC(=O)[C@H](C)NC(=O)[C@H](CC(C)C)NC(=O)[C@H](CCCNC(N)=O)NC(=O)[C@H](CCC(N)=O)NC(=O)[C@@H](NC(=O)[C@@H](NC(=O)[C@@H]1CSSC[C@H](NC(=O)CN)C(=O)N[C@@H](CCCNC(=N)N)C(=O)N[C@@H]([C@@H](C)O)C(=O)NCC(=O)N[C@@H]([C@@H](C)O)C(=O)N1)[C@@H](C)O)C(C)C)C(=O)N[C@@H](Cc1ccc(O)cc1)C(=O)N[C@@H](CCC(N)=O)C(=O)N[C@@H](Cc1ccccc1)C(=O)N[C@H](C(=O)N[C@@H](CC(=O)O)C(=O)N[C@@H](CCCCN)C(=O)N[C@@H](CC(=O)O)C(=O)N[C@@H](CCCCN)C(=O)N[C@@H](CC(=O)O)C(=O)N[C@@H](CC(N)=O)C(=O)N[C@H](C(=O)N[C@@H](C)C(=O)N1CCC[C@H]1C(=O)N[C@@H](CCCNC(=N)N)C(=O)N[C@H](C(=O)N[C@@H](CCCCN)C(=O)N[C@H](C(=O)NCC(=O)N1CCC[C@H]1C(=O)N[C@@H](CCC(N)=O)C(=O)NCC(=O)N1C[C@H](O)C[C@H]1C(N)=O)C(C)C)[C@@H](C)O)C(C)C)[C@@H](C)O [compound 292] (H-GCRTGTCTVQ[Cit]LAHQIYQFTDKDKDNVAPRTKVGPQG[Hyp]-NH2; disulfide 2-7; N-terminus assumed)
6 | > 5 | 21.700 | CC[C@H](C)[C@H](NC(=O)[C@H](CCC(N)=O)NC(=O)[C@H](CCC(=O)O)NC(=O)[C@H](C)NC(=O)[C@H](CC(C)C)NC(=O)[C@H](Cc1c[nH]c2ccccc12)NC(=O)[C@H](CCC(N)=O)NC(=O)[C@@H](NC(=O)[C@@H](NC(=O)[C@@H]1CSSC[C@H](NC(=O)[C@@H](N)CCCCN)C(=O)N[C@@H](CC(N)=O)C(=O)N[C@@H]([C@@H](C)O)C(=O)N[C@@H](C)C(=O)N[C@@H]([C@@H](C)O)C(=O)N1)[C@@H](C)O)C(C)C)C(=O)N[C@@H](Cc1ccc(O)cc1)C(=O)N[C@@H](CCC(N)=O)C(=O)N[C@@H](Cc1ccccc1)C(=O)N[C@H](C(=O)N[C@@H](CC(=O)O)C(=O)N[C@@H](CCCCN)C(=O)N[C@@H](CC(=O)O)C(=O)N[C@@H](CCCCN)C(=O)N[C@@H](CC(=O)O)C(=O)N[C@@H](CC(N)=O)C(=O)N[C@H](C(=O)N[C@@H](C)C(=O)N1CCC[C@H]1C(=O)N1CCC[C@H]1C(=O)N[C@@H](Cc1ccc(O)cc1)C(=O)N[C@@H](CC(N)=O)C(=O)N[C@@H](CCC(=O)O)C(=O)NCC(=O)N[C@@H](CO)C(=O)N[C@@H](CC(N)=O)C(=O)NCC(=O)N1C[C@H](O)C[C@H]1C(N)=O)C(C)C)[C@@H](C)O [compound 321] (H-KCNTATCTVQWLAEQIYQFTDKDKDNVAPPYNEGSNG[Hyp]-NH2; disulfide 2-7; N-terminus assumed)
7 | > 5 | 19.750 | CC[C@H](C)[C@H](NC(=O)[C@H](CCCCN)NC(=O)[C@@H](NC(=O)[C@H](CCCNC(=N)N)NC(=O)[C@@H]1CCCN1C(=O)[C@H](C)NC(=O)[C@@H](NC(=O)[C@H](CC(N)=O)NC(=O)[C@H](CC(=O)O)NC(=O)[C@H](CCCCN)NC(=O)[C@H](CC(=O)O)NC(=O)[C@H](CCCCN)NC(=O)[C@H](CC(=O)O)NC(=O)[C@@H](NC(=O)[C@H](Cc1ccccc1)NC(=O)[C@H](CCC(N)=O)NC(=O)[C@H](Cc1ccc(O)cc1)NC(=O)[C@@H](NC(=O)[C@H](CCC(N)=O)NC(=O)[C@H](Cc1c[nH]cn1)NC(=O)[C@H](C)NC(=O)[C@H](CC(C)C)NC(=O)[C@H](Cc1c[nH]c2ccccc12)NC(=O)[C@H](CCC(N)=O)NC(=O)[C@@H](NC(=O)[C@@H](NC(=O)[C@@H]1CSSC[C@H](NC(=O)CN)C(=O)N[C@@H](CCCNC(=N)N)C(=O)N[C@@H]([C@@H](C)O)C(=O)NCC(=O)N[C@@H]([C@@H](C)O)C(=O)N1)[C@@H](C)O)C(C)C)[C@@H](C)CC)[C@@H](C)O)C(C)C)[C@@H](C)O)C(=O)NCC(=O)N1CCC[C@H]1C(=O)N[C@@H](CCC(N)=O)C(=O)NCC(=O)N1C[C@H](O)C[C@H]1C(N)=O [compound 357] (H-GCRTGTCTVQWLAHQIYQFTDKDKDNVAPRTKIGPQG[Hyp]-NH2; disulfide 2-7; N-terminus assumed)
